Target: T1, hKv3.1 (Homo sapiens, UniProt P48547)
T1 construct: expressed in transfected cells
T1 sequence (P48547 1-511): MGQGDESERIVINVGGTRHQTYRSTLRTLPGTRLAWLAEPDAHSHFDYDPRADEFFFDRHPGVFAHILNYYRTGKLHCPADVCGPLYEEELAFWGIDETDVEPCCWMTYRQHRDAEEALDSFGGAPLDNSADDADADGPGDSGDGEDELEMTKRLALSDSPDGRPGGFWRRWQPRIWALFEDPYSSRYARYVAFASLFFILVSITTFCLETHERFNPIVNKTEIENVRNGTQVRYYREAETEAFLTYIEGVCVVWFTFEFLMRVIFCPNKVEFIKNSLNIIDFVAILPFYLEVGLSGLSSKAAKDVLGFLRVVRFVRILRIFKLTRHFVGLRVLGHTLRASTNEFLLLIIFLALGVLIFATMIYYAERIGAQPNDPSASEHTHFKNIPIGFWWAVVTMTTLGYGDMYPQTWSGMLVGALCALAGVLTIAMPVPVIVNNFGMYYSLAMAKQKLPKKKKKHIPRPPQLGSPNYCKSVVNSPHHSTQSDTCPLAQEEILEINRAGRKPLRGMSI
Test: Automated patch clamp electrophysiology (Patchliner), CHO/Kv3.1 cells
Type: cell-based
Conditions: 10 μM compound, hKv3.1 in CHO-K1, whole-cell; for Kv3.1 Activity at 10 μM Potentiation (%): peak current at voltage step of −10 mV vs vehicle (0.33% DMSO); for Kv3.1 Activity at 10 μM Voltage Shift (mV): voltage shift of the IV curve at V1/2
Experimental: hKv3.1, hKv3.2, hKv3.3, and hKv3.4 were stably expressed in CHO-K1 (Chinese hamster ovary) cells and kept under constant antibiotic selection. For in vitro assays, cells were maintained in appropriate growth medium at 37° C. and 5% CO2 in a humidified incubator.
hKv3.X expressing cells were plated in T-25 flasks for 3-4 days at 37° C. (no selection antibiotic) prior to use and grown to 80% confluence. Cells were washed twice with PBS (calcium and magnesium free) and detached with a 5-minute treatment at 37° C. with 2-3 mls of Accutase®. Cells were collected, and flask was washed in CHO-SFM II media (Life Technologies Gibco), centrifuged for 2 minutes at ˜110×g and resuspended to obtain a single cell suspension of ˜2-3×10^6 cells/ml.
The intracellular solution contained the following (in mM): KCl 50, NaCl 10, KF 60, EGTA 20, HEPES 10, adjusted to pH 7.2 with KOH and an osmolarity of 285 mOsmol. Seal enhancer was purchased from Nanion (80 mM NaCl, 3 mM KCl, 10 mM MgCl2, 35 mM CaCl2), 10 mM HEPES, pH7.4, 298 mOsmol. The external solution contained (in mM): NaCl 140, KCl 4, CaCl2) 2, MgCl2 1, HEPES 10, Glucose 5, adjusted to pH7.4 and an osmolarity of 298 mOsmol.
All compounds were initially tested at 10 uM at a final DMSO concentration of 0.33%. Compounds were dissolved in dimethylsulfoxide (DMSO) at a stock concentration of 30 mM. The compound was further diluted 1:10 to give a stock concentration of 3 mM in DMSO. The final assay solution was diluted 1:300 in External solution to give a final concentration of 10 uM. For the DMSO Control Buffer 30 uL of DMSO was added to 10 mL buffer.
All electrophysiological recordings were performed at ambient temperature (21-23° C.) using automated patch clamp (Patchliner, Nanion Technologies GmbH) in the whole-cell configuration.
Cell membrane potentials were held at −80 mV, and currents were evoked by voltage steps (1000 ms duration) from −60 to +60 mV in 10 mV increments. This was performed first with vehicle (0.33% DMSO) and then with 10 uM compound, after a 3-minute incubation period. Data was taken from 4 cells per assay.
The recordings were analysed and selected using peak current amplitude (>100 pA at the −10 mV voltage step) in the absence of compound to eliminate unsuitable cells from analysis. Peak current amplitude was measured and recorded for each voltage step and data was normalised to the maximum current at +60 mV. The normalised Kv3.x currents following addition of the compound were then compared with the currents recorded prior to compound addition (vehicle control). Positive modulation was determined as % potentiation at the voltage step of −10 mV=[current (cmpd)/current (veh)]*100−100. % potentiation≥50% was considered acceptable. In addition, voltage shift of the IV curve at V1/2 was measured. V1/2 of ≥−5 mV was also considered acceptable. IV curves were plotted in GraphPad Prism (software version 6.0) and fitted with a Boltzmann equation, where V1/2 is the voltage at half-maximal activation.

| Kv3.1 Activity at 10 μM Potentiation (%) | Kv3.1 Activity at 10 μM Voltage Shift (mV) | Compound |
| --- | --- | --- |
| 15% | −0.5 mV | COc1cc(Oc2cncc(N3C(=O)NC(C)(C)C3=O)n2)ccc1F [Example 54, 3-[6-(4-fluoro-3-methoxy-phenoxy)pyrazin-2-yl]-5,5-dimethyl-imidazolidine-2,4-dione] |
| 16% | −3.9 mV | CC[C@H]1NC(=O)N(c2cc(Oc3ccc(C)c(OC)c3)ncn2)C1=O [Example 55, (5R)-5-ethyl-3-[6-(3-methoxy-4-methyl-phenoxy)pyrimidin-4-yl]imidazolidine-2,4-dione] |
| −7% | +0.8 mV | CC[C@H]1NC(=O)N(c2nccc(Oc3ccc(C#N)cc3C(C)(C)C)n2)C1=O [Example 57, 3-tert-butyl-4-[2-[(4R)-4-ethyl-2,5-dioxo-imidazolidin-1-yl]pyrimidin-4-yl]oxy-benzonitrile] |
| 22% | −1.1 mV | CC[C@H]1NC(=O)N(c2ccnc(Oc3ccc(C)c(OC)c3)n2)C1=O [Example 59, (5R)-5-ethyl-3-[2-(3-methoxy-4-methyl-phenoxy)pyrimidin-4-yl]imidazolidine-2,4-dione] |
| 22% | −2.0 mV | COc1cc(Oc2ccnc(N3C(=O)NC(C)(C)C3=O)n2)ccc1C [Example 60, 3-[4-(3-methoxy-4-methyl-phenox)pyrimidin-2-yl]-5,5-dimethyl-imidazolidine-2,4-dione] |
| 21% | −1.6 mV | CC(C)c1cc(Oc2ccnc(N3C(=O)NC(C)(C)C3=O)n2)ccc1C#N [Example 61, 4-[2-(4,4-dimethyl-2,5-dioxo-imidazolidin-1-yl)pyrimidin-4-yl]oxy-2-isopropyl-benzonitrile] |
| 20% | −3.1 mV | CC[C@@]1(C)NC(=O)N(c2ccnc(Oc3ccc(C)c(OC)c3)n2)C1=O [Example 62, (5R)-5-ethyl-3-[2-(3-methoxy-4-methyl-phenoxy)pyrimidin-4-yl]-5-methyl-imidazolidine-2,4-dione] |
| 34% | −1.8 mV | COc1cc(Oc2nccc(N3C(=O)NC(C)(C)C3=O)n2)ccc1F [Example 64, 3-[2-(3-methoxy-4-fluoro-phenoxy)pyrimidin-4-yl]-5,5-dimethyl-imidazolidine-2,4-dione] |
| 26% | −2.4 mV | COc1cc(Oc2cnnc(N3C(=O)NC(C)(C)C3=O)c2)ccc1C [Example 77, 3-[5-(3-methoxy-4-methyl-phenoxy)pyridazin-3-yl]-5,5-dimethyl-imidazolidine-2,4-dione] |

Second part, the compound before the results:

| Compound | Kv3.1 Activity at 10 μM Potentiation (%) | Kv3.1 Activity at 10 μM Voltage Shift (mV) |
| --- | --- | --- |
| CC1(C)NC(=O)N(c2cc(Oc3cccc4c3CCC4)ncn2)C1=O [Example 32, 3-(6-indan-4-yloxypyrimidin-4-yl)-5,5-dimethyl-imidazolidine-2,4-dione] | 13% | −1.3 mV |
| CC1(C)NC(=O)N(c2cc(Oc3ccc4c(c3)OCCC4)ncn2)C1=O [Example 33, 3-(6-chroman-7-yloxypyrimidin-4-yl)-5,5-dimethyl-imidazolidine-2,4-dione] | 33% | −1.6 mV |
| COc1c(C)cc(Oc2cc(N3C(=O)NC(C)(C)C3=O)ncn2)cc1C [Example 35, 3-[6-(4-methoxy-3,5-dimethyl-phenoxy)pyrimidin-4-yl]-5,5-dimethyl-imidazolidine-2,4-dione] | −10% | −0.4 mV |
| CCOc1cc(Oc2cc(N3C(=O)NC(C)(C)C3=O)ncn2)ccc1C [Example 36, 3-[6-(3-ethoxy-4-methyl-phenoxy)pyrimidin-4-yl]-5,5-dimethyl-imidazolidine-2,4-dione] | 17% | −3.3 mV |
| Cc1ccc(Oc2cc(N3C(=O)NC(C)(C)C3=O)ncn2)cc1OCC1CC1 [Example 37, 3-[6-[3-(cyclopropylmethoxy)-4-methyl-phenoxy]pyrimidin-4-yl]-5,5-dimethyl-imidazolidine-2,4-dione] | 16% | −1.0 mV |
| Cc1ccc(Oc2cc(N3C(=O)NC(C)(C)C3=O)ncn2)cc1OC(C)C [Example 38, 3-[6-(3-isopropoxy-4-methyl-phenoxy)pyrimidin-4-yl]-5,5-dimethyl-imidazolidine-2,4-dione] | 18% | −2.0 mV |
| Cc1ccc(Oc2cc(N3C(=O)NC(C)(C)C3=O)ncn2)cc1OCC(C)C [Example 39, 3-[6-(3-isobutoxy-4-methyl-phenoxy)pyrimidin-4-yl]-5,5-dimethyl-imidazolidine-2,4-dione] | 13% | −2.1 mV |
| COc1cccc(Oc2cc(N3C(=O)NC(C)(C)C3=O)ncn2)c1C(C)C [Example 40, 3-[6-(2-isopropyl-3-methoxy-phenoxy)pyrimidin-4-yl]-5,5-dimethyl-imidazolidine-2,4-dione] | 23% | −2.1 mV |
| COc1cc(Oc2cc(N3C(=O)NC(C)(C)C3=O)ncn2)ccc1C(F)(F)F [Example 42, 3-[6-[3-methoxy-4-(trifluoromethyl)phenoxy]pyrimidin-4-yl]-5,5-dimethyl-imidazolidine-2,4-dione] | 11% | +2.0 mV |
| Cc1ccc(Oc2cc(N3C(=O)NC(C)(C)C3=O)ncn2)cc1OC(F)(F)F [Example 44, 3-[6-[4-methyl-3-(trifluoromethoxy)phenoxy]pyrimidin-4-yl]-5,5-dimethyl-imidazolidine-2,4-dione] | 33% | −2.9 mV |
| CC1(C)NC(=O)N(c2cc(Oc3ccc4c(c3)OC(F)(F)O4)ncn2)C1=O [Example 45, 3-[6-[(2,2-difluoro-1,3-benzodioxol-5-yl)oxy]pyrimidin-4-yl]-5,5-dimethyl-imidazolidine-2,4-dione] | 19% | −1.7 mV |
| CC[C@@]1(C)NC(=O)N(c2nccc(Oc3ccc(C)c(OC)c3)n2)C1=O [Example 48, (5R)-5-ethyl-3-[4-(3-methoxy-4-methyl-phenoxy)pyrimidin-2-yl]-5-methyl-imidazolidine-2,4-dione] | 32% | −2.1 mV |
